# US6048523A, “Polyester cyclic compounds, their complexes and bonded bodies” (priority 1996, dated 2000)
# Columns and labels:
# macrophages = test: migration ability of macrophages (glass capillary method) after oral administration; format: in vivo, SD rat; details: oral 4 mg/kg/day, 4 weeks; migration area after 24 hours; ratio to control group
# Protocol: After the administration, liquid paraffin was administered into peritoneal cavity of each rat. Three days later, peritoneal exudate cells were taken. Migration ability of macrophages produced from the peritoneal exudate cells was tested by glass capillary method. After 24 hours, a migration area of the macrophage was measured and a ratio of the measured migration area to that of control group was calculated.
# lactic acid bacteria = test: multiplication of lactic acid bacteria in MRS medium; format: cell-based; details: 0.25 mg/10 ml MRS medium, 48 hours; read-out: Multiplication rates to control
# Protocol: Pre-cultivated lactic acid bacteria were seeded into each MRS medium in a predetermined amount. After 48 hours, it was diluted to a predetermined magnification and inoculated on an MRS agar medium to measure the number of the bacteria.
# Yoshida sarcomas = test: Yoshida sarcoma transplanted into rat, oral administration; format: in vivo, Donryu-rat; details: 8 mg/kg/day, 2 weeks
# Protocol: Yoshida sarcomas were transplanted into a Donryu-rat of an age of 5 weeks. […] After the administration, sizes of the sarcomas were measured.
# Yoshida sarcoma cells = test: suppression of Yoshida sarcoma cells in culture; format: cell-based; details: Rattus norvegicus, 72 h, 3 days, read-out: suppression rate to control
# Protocol: A concentration of each compound or complex in the culture solution was adjusted to 1 mg/ml, 0.5 mg/ml, 0.25 mg/ml or 0.125 mg/ml. After the sarcoma cells were cultivated for 3 days, the number of the cells was measured.
# [1] = tested on: lactic acid bacteria in the bowel; test: number of lactic acid bacteria in the bowel of rats after oral administration; format: in vivo, rat; details: oral 4 mg/kg/day, 4 weeks; upper limit of the measurement 20
# Description: After the administration, content of the bowel of each rat was taken, diluted to a predetermined magnification and inoculated on an MRS agar medium to measure the number of lactic acid bacteria in the bowel.
structure (smiles),measurement,setting,value
"CC1OC(=O)C(C)OC1=O (stereo not drawn) [formula (4), lactide]",Ratio of the migration area,macrophages,1.13
same,activity at 25 µg/mL,lactic acid bacteria,116%
same,Size of sarcoma,Yoshida sarcomas; average values,3216.6 mm^3
same,Suppression rate,Yoshida sarcomas; versus control,57.9%
same,inhibition at 125 µg/mL,Yoshida sarcoma cells; 0.125 mg/ml,-18.2%
same,inhibition at 250 µg/mL,Yoshida sarcoma cells; 0.25 mg/ml,0%
same,inhibition at 500 µg/mL,Yoshida sarcoma cells; 0.5 mg/ml,0%
same,inhibition at 1000 µg/mL,Yoshida sarcoma cells; 1 mg/ml,40.9%
same,Ratio to control (number of lactic acid bacteria in the bowel),[1],3.8
